{
  "source": "PubChem BioAssay AID2060352",
  "about": "(Molecular Pharmacology Branch, DTP, NCI, 2025)",
  "system": "616215-338-R-J1-PDC spheroid with HUVEC/MSC, viability",
  "assay": "Anticancer human tumor 616215-338-R-J1-PDC patient-derived colon adenocarcinoma cell line growth inhibition [TAK]",
  "details": "for viability, T/C: stronger effect = lower value",
  "excerpt": "Combinatorial screen of targeted agents with TAK-243 and ipatasertib in multi-cell type tumor spheroids\nA high-throughput screen of multi-cell type tumor spheroids was designed to identify active combinations of targeted small molecules and TAK-243 or ipatasertib. Complex spheroids include a stromal component modeled by human endothelial cells (HUVEC) and fibroblasts modeled by human mesenchymal stem cells (MSCs). The concentration ranges selected for each drug and investigational agent were based upon clinically achievable concentrations if the clinical Cmax of the agent was known.\nCompounds. The drugs and investigational agents: TAK-243 (785004), ipatasertib (767898), everolimus (733504), selumetinib (741078), bortezomib (756655), trametinib (758246), ixazomib (758254), vemurafenib (761431), dabrafenib (764134), sapanisertib (764658), alpelisib (765974), and copanlisib (816437), were obtained from the National Cancer Institute (NCI) Developmental Therapeutics Program Chemical Repository. The FDA-approved anticancer drug set is available from the NCI Developmental Therapeutics Program. […] The stock solutions were prepared in dimethyl sulfoxide (DMSO, Sigma-Aldrich, St. Louis, MO, cat. D2650) at 800-fold the tested concentration and stored at -70 degrees C prior to their use. All drugs and investigational agents were tested over a range starting from a high concentration at or near the clinical Cmax and decreasing in half-log increments. If the clinical Cmax for an agent had not been determined, the highest concentration tested was 10 microM.\nNCI60 Cell Culture. NCI60 cell lines were obtained from the NCI Developmental Therapeutics Program Tumor Repository. For each lot of cells, the Repository performed Applied Biosystems AmpFLSTR Identifiler testing with PCR amplification to confirm consistency with the published Identifier STR profile for each cell line. Cells were kept in continuous culture for no more than 20 passages. The optimal seeding densities for each of the cell lines at each time point assessed were determined prior to performing the concentration response studies. Briefly, the NCI60 human tumor lines were grown as monolayers in RPMI 1640 medium supplemented with 10% FBS and 2 mmol/L L-glutamine.\nAn additional 2 lines were from the NCI60 cell line panel including melanomas, MALME-3M and SK-MEL-2. Pooled donor human umbilical vein endothelial cells (HUVEC, Lonza, cat. CC-2519) and human mesenchymal stem cells (hMSC, Lonza, cat. PT-2501) were purchased from Lonza (Walkersville, MD).\nPDMR cell lines were grown in complete medium (DC medium): Dulbecco's modified Eagle's medium (DMEM)/F12 supplemented with 5% fetal bovine serum (FBS), 2 mM L-glutamine, 100 U/mL penicillin and 100 µg/ml streptomycin, 0.4 µg/ml hydrocortisone, 10 ng/ml epidermal growth factor (EGF) recombinant human protein, 24 µg/mL adenine, and 0.1 mg/mL primocin. During culture from frozen stock vials, PDMR cells were cultured in the same medium containing 10 µM Y-27632 (see Table 3). The PDCs were cultured in complete DMEM/F12 media without 10 microM Y-27632 dihydrochloride for at least two passages prior to the screen. The pooled donor HUVEC and hMSC were cultured in endothelial cell growth medium 2 (PromoCell, Heidelberg, Germany, cat. C-22011) and mesenchymal stem cell growth medium 2 (PromoCell, cat. C-28009), respectively. For all experiments, HUVEC and hMSC were used at passages </=5.\nFor the pre-screen, cell seeding densities were determined from a titration spanning the range from 5,000 to 313 cells per well. The mct-spheroids including 60% malignant cells, 25% HUVEC and 15% MSC dispensed as a mixture into U-bottom Ultra-Low Attachment 384-well plates (Corning, NY)\nHigh-throughput Drug Combination Screening.\nPrior to their inoculation into 384-well plates, malignant cells, HUVEC, and hMSC were removed from T flasks using TrypLE express (Thermo Fisher Scientific, cat. 12605036) and harvested by centrifugation for 5 min at 233 x g. […]",
  "note": "Several values for one entry are separate records, joined by “and”; a condition that tells them apart may be missing. Equal values may be shown once.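 Note: spheroids exposed to drugs for 7 days before readout.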",
  "data": [
    {"smiles": "CC(C)CC(NC(=O)CNC(=O)c1cc(Cl)ccc1Cl)B1OC(=O)CC(CC(=O)O)(C(=O)O)O1", "note": "(centres undefined)", "values": [
      {"measurement": "viability, T/C", "setting": "compound 0.000316 µM", "value": "93.3% and 102%"},
      {"measurement": "viability, T/C", "setting": "compound 0.001 µM", "value": "97.9% and 110%"},
      {"measurement": "viability, T/C", "setting": "compound 0.00316 µM", "value": "104% and 111%"},
      {"measurement": "viability, T/C", "setting": "compound 0.01 µM", "value": "95.5% and 107%"},
      {"measurement": "viability, T/C", "setting": "compound 0.0316 µM", "value": "7.86% and 10.7%"},
      {"measurement": "viability, T/C", "setting": "compound 0.1 µM", "value": "0.16% and 0.17%"},
      {"measurement": "IC50", "setting": "curve of compound", "value": "18.2 nM and 19.7 nM"}
    ]},
    {"smiles": "CC(=O)Nc1cccc(-n2c(=O)n(C3CC3)c(=O)c3c(Nc4ccc(I)cc4F)n(C)c(=O)c(C)c32)c1", "note": "+ CC(C)NCC(C(=O)N1CCN(c2ncnc3c2C(C)CC3O)CC1)c1ccc(Cl)cc1", "values": [
      {"measurement": "IC50", "setting": "curve of first compound, second compound 0.3 µM", "value": 4.61, "unit": "nM"},
      {"measurement": "IC50", "setting": "curve of first compound, second compound 0.949 µM", "value": 1.65, "unit": "nM"},
      {"measurement": "IC50", "setting": "curve of first compound, second compound 3 µM", "value": 0.213, "unit": "nM"},
      {"measurement": "IC50", "setting": "curve of first compound, second compound 9.49 µM", "value": "< 0.0949", "unit": "nM"},
      {"measurement": "IC50", "setting": "curve of first compound, second compound 30 µM", "value": "< 0.0949", "unit": "nM"},
      {"measurement": "viability, T/C", "setting": "second compound 0.3 µM, first compound 94.9 pM", "value": 131, "unit": "%"},
      {"measurement": "viability, T/C", "setting": "second compound 0.3 µM, first compound 0.0003 µM", "value": 132, "unit": "%"},
      {"measurement": "viability, T/C", "setting": "second compound 0.3 µM, first compound 0.000949 µM", "value": 125, "unit": "%"},
      {"measurement": "viability, T/C", "setting": "second compound 0.3 µM, first compound 0.003 µM", "value": 69.9, "unit": "%"},
      {"measurement": "viability, T/C", "setting": "second compound 0.3 µM, first compound 0.00949 µM", "value": 16.6, "unit": "%"},
      {"measurement": "viability, T/C", "setting": "second compound 0.3 µM, first compound 0.03 µM", "value": 3.1, "unit": "%"},
      {"measurement": "viability, T/C", "setting": "second compound 0.949 µM, first compound 94.9 pM", "value": 134, "unit": "%"},
      {"measurement": "viability, T/C", "setting": "second compound 0.949 µM, first compound 0.0003 µM", "value": 130, "unit": "%"},
      {"measurement": "viability, T/C", "setting": "second compound 0.949 µM, first compound 0.000949 µM", "value": 69.7, "unit": "%"},
      {"measurement": "viability, T/C", "setting": "second compound 0.949 µM, first compound 0.003 µM", "value": 28.1, "unit": "%"},
      {"measurement": "viability, T/C", "setting": "second compound 0.949 µM, first compound 0.00949 µM", "value": 9.36, "unit": "%"},
      {"measurement": "viability, T/C", "setting": "second compound 0.949 µM, first compound 0.03 µM", "value": 1.03, "unit": "%"},
      {"measurement": "viability, T/C", "setting": "second compound 3 µM, first compound 94.9 pM", "value": 57.9, "unit": "%"},
      {"measurement": "viability, T/C", "setting": "second compound 3 µM, first compound 0.0003 µM", "value": 47.6, "unit": "%"},
      {"measurement": "viability, T/C", "setting": "second compound 3 µM, first compound 0.000949 µM", "value": 25.3, "unit": "%"},
      {"measurement": "viability, T/C", "setting": "second compound 3 µM, first compound 0.003 µM", "value": 11.9, "unit": "%"},
      {"measurement": "viability, T/C", "setting": "second compound 3 µM, first compound 0.00949 µM", "value": 4.2, "unit": "%"},
      {"measurement": "viability, T/C", "setting": "second compound 3 µM, first compound 0.03 µM", "value": 0.83, "unit": "%"},
      {"measurement": "viability, T/C", "setting": "second compound 9.49 µM, first compound 94.9 pM", "value": 22, "unit": "%"},
      {"measurement": "viability, T/C", "setting": "second compound 9.49 µM, first compound 0.0003 µM", "value": 18.4, "unit": "%"},
      {"measurement": "viability, T/C", "setting": "second compound 9.49 µM, first compound 0.000949 µM", "value": 12.3, "unit": "%"},
      {"measurement": "viability, T/C", "setting": "second compound 9.49 µM, first compound 0.003 µM", "value": 6.63, "unit": "%"},
      {"measurement": "viability, T/C", "setting": "second compound 9.49 µM, first compound 0.00949 µM", "value": 2.23, "unit": "%"},
      {"measurement": "viability, T/C", "setting": "second compound 9.49 µM, first compound 0.03 µM", "value": 1.12, "unit": "%"},
      {"measurement": "viability, T/C", "setting": "second compound 30 µM, first compound 94.9 pM", "value": 10.7, "unit": "%"},
      {"measurement": "viability, T/C", "setting": "second compound 30 µM, first compound 0.0003 µM", "value": 9.94, "unit": "%"},
      {"measurement": "viability, T/C", "setting": "second compound 30 µM, first compound 0.000949 µM", "value": 6.33, "unit": "%"},
      {"measurement": "viability, T/C", "setting": "second compound 30 µM, first compound 0.003 µM", "value": 3.43, "unit": "%"},
      {"measurement": "viability, T/C", "setting": "second compound 30 µM, first compound 0.00949 µM", "value": 1.53, "unit": "%"},
      {"measurement": "viability, T/C", "setting": "second compound 30 µM, first compound 0.03 µM", "value": 1.15, "unit": "%"}
    ]},
    {"smiles": "CC(C)n1nc(-c2ccc3oc(N)nc3c2)c2c(N)ncnc21", "values": [
      {"measurement": "viability, T/C", "setting": "compound 0.000316 µM", "value": "95.9% and 105%"},
      {"measurement": "viability, T/C", "setting": "compound 0.001 µM", "value": "115% and 107%"},
      {"measurement": "viability, T/C", "setting": "compound 0.00316 µM", "value": "99.9% and 114%"},
      {"measurement": "viability, T/C", "setting": "compound 0.01 µM", "value": "112% and 130%"},
      {"measurement": "viability, T/C", "setting": "compound 0.0316 µM", "value": "127% and 146%"},
      {"measurement": "viability, T/C", "setting": "compound 0.1 µM", "value": "94% and 38%"},
      {"measurement": "IC50", "setting": "curve of compound", "value": "> 100 nM and 84.7 nM"}
    ]}
  ]
}
